Holding throughout (format): cell-based
Assay [1] relates to Isogenic E. coli J58 strain carrying IMP-1. Put plainly: MIC determination, isogenic E. coli strains. The note with it: for MIC: Escherichia coli, 18 h, read-out: Mimimum Inhibitory Concentrations, IMP-1. The method in brief: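 Broth microdilution in cation-adjusted Mueller-Hinton broth with 20 μM apo-transferrin, compound serially diluted two-fold from 64 μg/mL, against E. coli J53 carrying plasmid-borne IMP-1. Inoculum adjusted to 0.5 McFarland; plates incubated 18 h at 37° C. MIC taken as lowest concentration giving a clear well.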

For assay [2], the system named is Isogenic E. coli J58 strain carrying TEM-26. Put plainly: MIC determination, isogenic E. coli strains. The note with it: Escherichia coli, 18 h, read-out: Mimimum Inhibitory Concentrations, TEM-26. A digest of the protocol:
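Broth microdilution in cation-adjusted Mueller-Hinton broth with 20 μM apo-transferrin, compound […] in twofold steps, inoculum from 0.5 McFarland suspension. E. coli J53 transformed with pBC-SK(+) encoding TEM-26; 18 h at 37° C, MIC as lowest concentration giving a clear well.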

The subject of assay [3] is Isogenic E. coli J58 strain carrying VIM-2. Put plainly: MIC determination, isogenic E. coli strains. As to conditions: for MIC: Escherichia coli, 18 h, read-out: Mimimum Inhibitory Concentrations, VIM-2. A digest of the protocol: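 E. coli J53 transformed with pBC-SK(+) plasmid carrying synthesized VIM-2 gene, grown in LB to OD600 >0.1, adjusted to 0.08–0.1 OD600 in CAMH broth.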

Assay [4] relates to Pseudomonas aeruginosa PA-RR-(G8062859). Put plainly: MIC determination. As to conditions: Pseudomonas aeruginosa; PA-RR-(G8062859); CAMH broth, 20 μM Apo-Transferrin, 37° C., 18 hours; read-out: Minimum Inhibitory Concentrations, PA-RR-(G8062859). How it is done:
(§1) Sterile technique was used throughout these experiments. Suspensions of organisms were removed from storage (−80° C.) and partially thawed. Partially thawed organisms (1 μL) were inoculated into 3 mL sterile LB Broth in a sterile culture tube and capped, then cultured at 37° C. with shaking for 4-5 hours until the optical density at 600 nm (OD600) was greater than 0.1 on a single beam spectrophotometer.
(§2) The concentration of organisms was adjusted to 0.08-0.1 OD600 (0.5 McFarland units) by dilution with sterile cation-adjusted Meuller-Hinton (CAMH) broth. The suspensions were used within 30 minutes of preparation.
(§3) A stock solution was made of each test compound by measuring 6.4 mg of the compound on an analytical balance and dissolving it in DMSO (1 mL) to get a transparent solution. The solutions were stored at −20° C. and thawed prior to use.
(§4) Sterile CAMH broth (200 μL) containing 20 μM Apo-Transferrin was pipetted into the first row of 8 columns of a sterile, round-bottomed, transparent, 96-well microplate using an 8-channel pipette equipped with sterile tips. One hundred μL was pipetted into the wells of the remaining 11 rows.
(§5) With an 8-channel pipette equipped with sterile tips, 100 μL of the first row solution was transferred to the second row and mixed. The process was repeated for the second to third rows and continued through row 11. One hundred μL from row 11 was removed and discarded so that all 12 rows contained 100 μL. Row 12 contained no compound and rows 1-11 contained 64, 32, 16, 8, 4, 2, 1, 0.5, 0.25, 0.125, […] of a given compound.
(§6) Inoculant suspensions (0.5 μL) were added to the 12 wells of each column. The plates were then covered and incubated at 37° C. overnight for 18 hours.
(§7) For each organism the MIC was determined by identifying the transparent well with the lowest test compound concentration.

Assay [5] has as its system Pseudomonas aeruginosa PA-RR-(G7304100). Put plainly: MIC determination. As to conditions: Pseudomonas aeruginosa; PA-RR-(G7304100); CAMH broth, 20 μM Apo-Transferrin, 37° C., 18 hours; read-out: Minimum Inhibitory Concentrations, PA-RR-(G7304100). How it is done: as §1, §2, §3, §4, §5, §6, §7
The subject of assay [6] is Pseudomonas aeruginosa PA-RR-(98023895). Put plainly: MIC determination. The note with it: Pseudomonas aeruginosa; PA-RR-(98023895); CAMH broth, 20 μM Apo-Transferrin, 37° C., 18 hours; read-out: Minimum Inhibitory Concentrations, PA-RR-(98023895). The procedure:
as §1, §2, §3, §4, §5, §6, §7

Assay [7] concerns Pseudomonas aeruginosa PA-RR-(G7294437). Put plainly: MIC determination. The note with it: Pseudomonas aeruginosa; PA-RR-(G7294437); CAMH broth, 20 μM Apo-Transferrin, 37° C., 18 hours; read-out: Minimum Inhibitory Concentrations, PA-RR-(G7294437). How it is done: as §1, §2, §3, §4, §5, §6, §7
Assay [8] concerns Pseudomonas aeruginosa PA (URMC-3). Put plainly: MIC determination. As to conditions: Pseudomonas aeruginosa; PA (URMC-3); CAMH broth, 20 μM Apo-Transferrin, 37° C., 18 hours; read-out: Minimum Inhibitory Concentrations, PA (URMC-3). How it is done: as §1, §2, §3, §4, §5, §6, §7
Assay [9] deals with Isogenic E. coli J58 strain carrying NDM-1. Put plainly: MIC determination, isogenic E. coli strains. The note with it: Escherichia coli, 18 h, read-out: Mimimum Inhibitory Concentrations, NDM-1. A digest of the protocol:
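E. coli J53 transformed with a pBC-SK(+) plasmid encoding NDM-1 was adjusted to 0.08-0.1 OD600. It was grown 18 h at 37° C in CAMH broth containing 20 μM apo-transferrin with twofold compound dilutions from 64 μg/mL. MIC was taken as the lowest concentration giving a transparent well.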

The subject of assay [10] is Isogenic E. coli J58 strain carrying CTX-M-14. Put plainly: MIC determination, isogenic E. coli strains. As to conditions: Escherichia coli, 18 h, read-out: Mimimum Inhibitory Concentrations, CTX-M-14. A digest of the protocol:
(§8)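 Isogenic E. coli J53 carrying plasmid-encoded CTX-M-14 or CTX-M-15 (ampicillin-selected), standardized to 0.08-0.1 OD600, incubated overnight (18 h, 37° C.) in CAMH broth plus 20 μM apo-transferrin over 2-fold compound dilutions starting at 64 μg/mL. Lowest concentration with no visible growth recorded as MIC.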

The test system of assay [11] is Isogenic E. coli J58 strain carrying CTX-M-15. Put plainly: MIC determination, isogenic E. coli strains. As to conditions: Escherichia coli, 18 h, read-out: Mimimum Inhibitory Concentrations, CTX-M-15. The method in brief: as §8
Assay [12] concerns Isogenic E. coli J58 strain carrying KPC-3. Put plainly: MIC determination, isogenic E. coli strains. The note with it: Escherichia coli, 18 h, read-out: Mimimum Inhibitory Concentrations, KPC-3. A digest of the protocol:
(§9)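 Broth microdilution in cation-adjusted Mueller-Hinton broth with 20 μM apo-transferrin, compound at 64 down to […], inoculum set to 0.5 McFarland. E. coli J53 transformed with pBC-SK(+) carrying the synthetic beta-lactamase gene was used. Plates were incubated 18 h at 37 °C; MIC is the lowest concentration giving a clear well.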

For assay [13], the system named is Isogenic E. coli J58 strain carrying KPC-2. Put plainly: MIC determination, isogenic E. coli strains. As to conditions: Escherichia coli, 18 h, read-out: Mimimum Inhibitory Concentrations, KPC-2. The method in brief:
as §9

In assay [14] the test system is Isogenic E. coli J58 strain carrying SHV-1. Put plainly: MIC determination, isogenic E. coli strains. The note with it: Escherichia coli, 18 h, read-out: Mimimum Inhibitory Concentrations, SHV-1. A digest of the protocol: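 MIC is the lowest compound concentration leaving a transparent well after overnight (18 h) incubation at 37 °C. The test strain was E. coli J53 expressing plasmid-borne SHV-1 beta-lactamase from pBC-SK(+), adjusted to 0.5 McFarland. Compounds were twofold serially diluted, starting at 64 μg/mL, in CAMH broth supplemented with 20 μM apo-transferrin.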

In the next assay the test system is E. coli J53 Alone. Put plainly: MIC determination, isogenic E. coli strains. As to conditions: for MIC: Escherichia coli, J53ALONE, 18 h, read-out: Mimimum Inhibitory Concentrations, J53 Alone; for Mimimum Inhibitory Concentrations, J53 Alone: Table 4-2, CAMH broth, 20 μM Apo-Transferrin, 37° C., 18 hours. The method in brief: (§10)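 Broth microdilution in cation-adjusted Mueller-Hinton broth with 20 μM apo-transferrin, 2-fold compound series from 64 μg/mL. E. coli J53, alone or transformed with a pBC-SK(+) plasmid carrying the beta-lactamase gene (e.g. DHA-1), inoculated from 0.5 McFarland suspension; 18 h at 37° C; MIC = lowest concentration with clear well.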

Assay [15] concerns Isogenic E. coli J58 strain carrying DHA-1. Put plainly: MIC determination, isogenic E. coli strains. As to conditions: Escherichia coli, 18 h, read-out: Mimimum Inhibitory Concentrations, DHA-1. The method in brief:
as §10

The text below walks through data of patent US20190100534A1, “Cephem Compounds with Latent Reactive Groups” (Gladius Pharmaceuticals, Inc., priority 2017, published 2019).

With `CC(C)(O/N=C(\C(=O)N[C@@H]1C(=O)N2C(C(=O)O)=C(C=Cc3ccc(C[N+]4(C)CCc5cc(O)c(O)cc5C4)cc3)CS[C@H]12)c1csc(N)n1)C(=O)O` (mixture of isomers) [Compound 407, 2-(4-((E/Z)-2-((6R,7R)-7-((Z)-2-(2-aminothiazol-4-yl)-2-(((2-carboxypropan-2-yl)oxy)imino)acetamido)-2-carboxy-8-oxo-5-thia-1-azabicyclo[4.2.0]oct-2-en-3 yl)vinyl)benzyl)-6,7-dihydroxy-2-methyl-1,2,3,4-tetrahydroisoquinolin-2-ium], the MIC was found to be 32 µg/mL in assay [1]; 1 µg/mL in assay [2]; 0.5 µg/mL in [3]; 0.06 µg/mL in assay [4]; 0.03 µg/mL in assay [5]; 0.13 µg/mL in assay [6]. In addition, the MIC in assay [7] is 0.03 µg/mL; in [8], 0.25 µg/mL; in [9], > 64 µg/mL; in [10], 1 µg/mL; in assay [11], 64 µg/mL; in assay [12], 4 µg/mL. Moreover, the figures for the MIC (in assay [13]; in assay [14]; in the assay with E. coli J53 Alone) were 8 µg/mL, 0.5 µg/mL and 0.13 µg/mL, respectively. Moreover, the “Mimimum Inhibitory Concentrations, J53 Alone” value in the assay with E. coli J53 Alone is recorded as 0.13 microgram/mL.
As to `CC(C)(O/N=C(\C(=O)N[C@@H]1C(=O)N2C(C(=O)O)=C(C=Cc3ccc(C[N+]4(C)CCc5c(Cl)c(O)c(O)c(Cl)c5C4)cc3)CS[C@H]12)c1csc(N)n1)C(=O)O` (mixture of isomers) [Compound 429, 2-(4-((E/Z)-2-((6R,7R)-7-((Z)-2-(2-aminothiazol-4-yl)-2-(((2-carboxypropan-2-yl)oxy)imino)acetamido)-2-carboxy-8-oxo-5-thia-1-azabicyclo[4.2.0]oct-2-en-3-yl)vinyl)benzyl)-5,8 dichloro-6,7-dihydroxy-2-methyl-1,2,3,4-tetrahydroisoquinolin-2-ium], the MIC in [1] is ≤ 0.06 µg/mL; in assay [3], ≤ 0.06 µg/mL; in assay [4], 0.5 µg/mL; in assay [5], ≤ 0.06 µg/mL; in [6] it was 4 µg/mL; in assay [7], ≤ 0.06 µg/mL. In addition, the MIC in assay [8] was 0.5 µg/mL; in assay [9], > 64 µg/mL; in [12] it was 1 µg/mL; in assay [13], 4 µg/mL; in assay [14], 0.25 µg/mL; in the assay on E. coli J53 Alone, ≤ 0.06 µg/mL. Also, the MIC in assay [15] came out at 0.25 µg/mL. Further, the “MICs for an E. coli strain carrying the gene for carbapenemase VIM-1, in words” value in [3] (review of Tables 4-1 and 4-2) is “low microgram/mL MICs”. Besides, the “Mimimum Inhibitory Concentrations, J53 Alone” value in the assay on E. coli J53 Alone is ≤0.06 microgram/mL.
With `CC(C)(O/N=C(\C(=O)N[C@@H]1C(=O)N2C(C(=O)O)=C(C=Cc3ccc(C[N+]4(C)CCc5ccc(O)c(O)c5C4)cc3)CS[C@H]12)c1csc(N)n1)C(=O)O` (mixture of isomers) [Compound 442, 2-(4-((E/Z)-2-((6R,7R)-7-((Z)-2-(2-aminothiazol-4-yl)-2-(((2-carboxypropan-2-yl)oxy)imino)acetamido)-2-carboxy-8-oxo-5-thia-1-azabicyclo[4.2.0]oct-2-en-3 yl)vinyl)benzyl)-7,8-dihydroxy-2-methyl-1,2,3,4-tetrahydroisoquinolin-2-ium], in assay [1] (review of Tables 4-1 and 4-2), the “MICs for an E. coli strain carrying the gene for carbapenemase IMP-1, in words” value is on record as “low microgram/mL MICs”. Also, the MIC is 0.5 µg/mL in assay [2]; 0.25 µg/mL in [4]; ≤ 0.06 µg/mL in assay [5]; 8 µg/mL in [6]; ≤ 0.06 µg/mL in [7]; 0.5 µg/mL in assay [8]. Besides, the MIC was > 64 µg/mL in assay [9]; 1 µg/mL in assay [12]; 2 µg/mL in assay [13]; 0.5 µg/mL in [14]; 0.25 µg/mL in the assay with E. coli J53 Alone. Besides, the “Mimimum Inhibitory Concentrations, J53 Alone” value in the assay on E. coli J53 Alone worked out at 0.25 microgram/mL.
